What was measured:
Assay in all cases: KINOMEscan competitive binding, whole panel
[1] = biological target: T1, panel of 203 kinases (Homo sapiens, UniProt P21709); settings: 10 µM, n=1; kinase EPHA1; read-out: Percent inhibition EPHA1
T1 construct: purchased DiscoverX (KINOMEscan)
T1 sequence (P21709 26-976): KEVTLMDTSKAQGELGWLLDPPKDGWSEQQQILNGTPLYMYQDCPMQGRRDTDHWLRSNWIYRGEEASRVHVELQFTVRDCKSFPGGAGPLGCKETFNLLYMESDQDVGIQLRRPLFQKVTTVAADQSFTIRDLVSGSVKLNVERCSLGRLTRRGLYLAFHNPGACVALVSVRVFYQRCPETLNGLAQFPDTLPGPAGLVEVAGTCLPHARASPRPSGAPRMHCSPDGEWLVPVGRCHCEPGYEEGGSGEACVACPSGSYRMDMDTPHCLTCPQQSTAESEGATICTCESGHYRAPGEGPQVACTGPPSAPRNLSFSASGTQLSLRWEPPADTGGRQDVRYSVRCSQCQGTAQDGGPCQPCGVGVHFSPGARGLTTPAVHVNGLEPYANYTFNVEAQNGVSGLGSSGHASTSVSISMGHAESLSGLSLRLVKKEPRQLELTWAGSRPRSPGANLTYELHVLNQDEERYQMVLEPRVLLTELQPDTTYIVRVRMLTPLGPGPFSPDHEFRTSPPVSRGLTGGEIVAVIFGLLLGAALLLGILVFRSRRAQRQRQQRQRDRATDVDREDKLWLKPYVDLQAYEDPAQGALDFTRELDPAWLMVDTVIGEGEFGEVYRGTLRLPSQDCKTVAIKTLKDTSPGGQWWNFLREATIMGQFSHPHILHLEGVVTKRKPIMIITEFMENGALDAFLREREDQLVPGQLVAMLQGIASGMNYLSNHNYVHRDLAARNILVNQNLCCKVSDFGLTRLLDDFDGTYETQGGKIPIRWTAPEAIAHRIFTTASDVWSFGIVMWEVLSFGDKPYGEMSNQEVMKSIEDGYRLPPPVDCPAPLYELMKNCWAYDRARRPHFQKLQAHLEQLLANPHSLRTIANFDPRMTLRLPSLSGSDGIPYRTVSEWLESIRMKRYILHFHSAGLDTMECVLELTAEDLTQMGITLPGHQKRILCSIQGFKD
Procedure, shortened: (§1)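 First, kinases were produced as T7 bacteriophage fusion proteins. Then compounds were added to compete them off probe ligands immobilized on a solid support at the ATP site. Finally, bound kinase was measured and converted to percentage inhibition.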

[2] = biological target: T2, panel of 203 kinases (Homo sapiens, UniProt Q9H1R3); settings: 10 µM, n=1; kinase MYLK2; read-out: Percent inhibition MYLK2
T2 construct: purchased DiscoverX (KINOMEscan)
T2 sequence (Q9H1R3 whole entry): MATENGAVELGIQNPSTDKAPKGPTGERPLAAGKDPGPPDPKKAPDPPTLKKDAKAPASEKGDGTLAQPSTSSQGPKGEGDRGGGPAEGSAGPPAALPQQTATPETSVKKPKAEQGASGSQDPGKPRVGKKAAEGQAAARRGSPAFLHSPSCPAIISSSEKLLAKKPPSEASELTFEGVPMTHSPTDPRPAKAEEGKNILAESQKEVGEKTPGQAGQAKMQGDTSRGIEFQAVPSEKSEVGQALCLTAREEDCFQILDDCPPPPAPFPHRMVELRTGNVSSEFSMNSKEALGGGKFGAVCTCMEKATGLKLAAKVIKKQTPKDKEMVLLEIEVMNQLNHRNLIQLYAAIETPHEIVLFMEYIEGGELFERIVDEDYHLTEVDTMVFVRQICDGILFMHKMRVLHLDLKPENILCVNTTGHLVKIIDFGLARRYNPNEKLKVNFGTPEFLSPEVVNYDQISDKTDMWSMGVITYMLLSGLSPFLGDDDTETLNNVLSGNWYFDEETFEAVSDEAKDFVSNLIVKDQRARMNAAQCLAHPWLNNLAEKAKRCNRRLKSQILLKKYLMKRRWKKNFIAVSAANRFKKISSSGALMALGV
Procedure, shortened: as §1

[3] = biological target: T3, panel of 203 kinases (Homo sapiens, UniProt P29320); settings: 10 µM, n=1; kinase EPHA3; read-out: Percent inhibition EPHA3
T3 construct: purchased DiscoverX (KINOMEscan)
T3 sequence (P29320 21-983): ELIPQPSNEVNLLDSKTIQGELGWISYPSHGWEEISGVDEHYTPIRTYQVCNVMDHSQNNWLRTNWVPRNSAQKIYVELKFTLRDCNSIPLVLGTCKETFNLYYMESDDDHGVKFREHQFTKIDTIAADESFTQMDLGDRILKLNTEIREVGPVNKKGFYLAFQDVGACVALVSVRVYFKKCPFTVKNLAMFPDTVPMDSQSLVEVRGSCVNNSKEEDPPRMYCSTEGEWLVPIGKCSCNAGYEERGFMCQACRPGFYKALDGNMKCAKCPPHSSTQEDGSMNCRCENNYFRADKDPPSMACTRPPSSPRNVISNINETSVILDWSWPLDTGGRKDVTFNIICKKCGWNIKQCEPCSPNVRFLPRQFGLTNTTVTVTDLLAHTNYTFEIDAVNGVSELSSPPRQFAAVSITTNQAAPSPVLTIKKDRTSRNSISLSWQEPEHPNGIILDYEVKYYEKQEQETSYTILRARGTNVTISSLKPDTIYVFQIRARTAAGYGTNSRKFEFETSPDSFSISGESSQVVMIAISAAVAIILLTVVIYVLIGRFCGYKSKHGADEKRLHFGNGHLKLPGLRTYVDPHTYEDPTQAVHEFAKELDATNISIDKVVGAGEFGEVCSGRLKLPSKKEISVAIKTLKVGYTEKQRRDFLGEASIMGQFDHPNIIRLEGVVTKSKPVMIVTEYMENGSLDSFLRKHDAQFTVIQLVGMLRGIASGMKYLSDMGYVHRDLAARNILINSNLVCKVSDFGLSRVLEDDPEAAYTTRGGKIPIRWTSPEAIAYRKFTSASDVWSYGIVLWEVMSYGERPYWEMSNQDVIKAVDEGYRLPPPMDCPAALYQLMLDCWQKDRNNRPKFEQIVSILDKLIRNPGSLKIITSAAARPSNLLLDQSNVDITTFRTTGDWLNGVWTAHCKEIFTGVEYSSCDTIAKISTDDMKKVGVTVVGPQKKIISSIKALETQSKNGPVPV
Procedure, shortened: as §1

[4] = biological target: T4, panel of 203 kinases (Homo sapiens, UniProt Q16539); settings: 10 µM, n=1; kinase p38-alpha; read-out: Percent inhibition p38-alpha
T4 construct: purchased DiscoverX (KINOMEscan)
T4 sequence (Q16539 whole entry): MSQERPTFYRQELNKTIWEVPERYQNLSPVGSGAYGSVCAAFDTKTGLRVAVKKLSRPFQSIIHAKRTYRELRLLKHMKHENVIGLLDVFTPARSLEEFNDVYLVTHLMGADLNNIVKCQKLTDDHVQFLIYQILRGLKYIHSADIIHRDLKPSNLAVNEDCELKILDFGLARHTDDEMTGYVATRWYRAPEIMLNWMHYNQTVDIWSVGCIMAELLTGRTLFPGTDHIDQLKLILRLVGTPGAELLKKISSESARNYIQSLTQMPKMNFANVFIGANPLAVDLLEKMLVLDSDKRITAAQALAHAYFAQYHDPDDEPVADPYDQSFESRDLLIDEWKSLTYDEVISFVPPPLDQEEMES
Procedure, shortened: as §1

[5] = biological target: T5, panel of 203 kinases (Homo sapiens, UniProt Q9UQB9); settings: 10 µM, n=1; kinase AURKC; read-out: Percent inhibition AURKC
T5 construct: purchased DiscoverX (KINOMEscan)
T5 sequence (Q9UQB9 1-309): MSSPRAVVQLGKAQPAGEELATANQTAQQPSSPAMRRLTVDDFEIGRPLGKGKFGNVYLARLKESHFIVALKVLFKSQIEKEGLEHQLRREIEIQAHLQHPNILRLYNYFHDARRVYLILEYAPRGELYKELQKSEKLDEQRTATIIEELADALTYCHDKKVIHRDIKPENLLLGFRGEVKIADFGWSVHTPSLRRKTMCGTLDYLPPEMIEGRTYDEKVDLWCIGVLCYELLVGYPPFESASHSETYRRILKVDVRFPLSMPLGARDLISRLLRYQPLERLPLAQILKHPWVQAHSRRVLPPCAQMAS
Procedure, shortened: as §1

[6] = biological target: T6, panel of 203 kinases (Homo sapiens, UniProt P41240); settings: 10 µM, n=1; kinase CSK; read-out: Percent inhibition CSK
T6 construct: purchased DiscoverX (KINOMEscan)
T6 sequence (P41240 whole entry): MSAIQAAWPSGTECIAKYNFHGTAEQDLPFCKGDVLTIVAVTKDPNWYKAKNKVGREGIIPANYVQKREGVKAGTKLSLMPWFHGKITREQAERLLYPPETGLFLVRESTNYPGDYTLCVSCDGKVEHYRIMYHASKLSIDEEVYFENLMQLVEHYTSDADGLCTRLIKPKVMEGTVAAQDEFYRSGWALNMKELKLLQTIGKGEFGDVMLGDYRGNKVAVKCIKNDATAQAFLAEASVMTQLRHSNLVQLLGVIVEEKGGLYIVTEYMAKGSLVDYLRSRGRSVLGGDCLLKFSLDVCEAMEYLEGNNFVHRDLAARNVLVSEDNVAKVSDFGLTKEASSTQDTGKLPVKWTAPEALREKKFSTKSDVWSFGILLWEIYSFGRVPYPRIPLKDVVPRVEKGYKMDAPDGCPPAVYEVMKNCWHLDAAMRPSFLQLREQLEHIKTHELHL
Procedure, shortened: as §1

CN1CCN(c2ccc(Nc3nccc(-c4cnn5ncccc45)n3)cc2C#N)CC1 [Compound 1]
inhibition at 10 µM [1]: 94.3% | inhibition at 10 µM [2]: 96.8% | inhibition at 10 µM [3]: 98% | inhibition at 10 µM [4]: 0% | inhibition at 10 µM [5]: 96.5% | inhibition at 10 µM [6]: 83%

COc1ccc(Nc2nccc(-c3cnn4ncccc34)n2)cc1 [Compound 2]
inhibition at 10 µM [1]: 92.5% | inhibition at 10 µM [2]: 80.5% | inhibition at 10 µM [3]: 85% | inhibition at 10 µM [4]: 0% | inhibition at 10 µM [5]: 91.1% | inhibition at 10 µM [6]: 0%

Cc1ccc(O)cc1Nc1ccnc(Nc2cccc(C(N)=O)c2)n1 [Compound 3]
inhibition at 10 µM [1]: 100% | inhibition at 10 µM [2]: 83.2% | inhibition at 10 µM [3]: 100% | inhibition at 10 µM [4]: 77.8% | inhibition at 10 µM [5]: 0% | inhibition at 10 µM [6]: 100%

Cc1ccc(O)cc1N(C)c1ccnc(Nc2cccc(S(N)(=O)=O)c2)n1 [Compound 4]
inhibition at 10 µM [1]: 100% | inhibition at 10 µM [2]: 0% | inhibition at 10 µM [3]: 100% | inhibition at 10 µM [4]: 99.1% | inhibition at 10 µM [5]: 0% | inhibition at 10 µM [6]: 100%

Fc1cccc(COc2ccc(Nc3ncnc4c3CN(CCN3CCOCC3)CC4)cc2Cl)c1 [Compound 6]
inhibition at 10 µM [1]: 0% | inhibition at 10 µM [2]: 0% | inhibition at 10 µM [3]: 0% | inhibition at 10 µM [4]: 0% | inhibition at 10 µM [5]: 0% | inhibition at 10 µM [6]: 0%

COc1cc(Nc2nccc(-c3sc(N)nc3-c3cccc(NC(=O)c4c(F)cccc4F)c3)n2)cc(OC)c1OC [Compound 7]
inhibition at 10 µM [1]: 100% | inhibition at 10 µM [2]: 97% | inhibition at 10 µM [3]: 99.7% | inhibition at 10 µM [4]: 98.5% | inhibition at 10 µM [5]: 85.7% | inhibition at 10 µM [6]: 100%

C[C@@H](Oc1cc(-c2cnc3ccccn23)sc1C(N)=O)c1ccccc1Cl [Compound 8]
inhibition at 10 µM [1]: 0% | inhibition at 10 µM [2]: 66.5% | inhibition at 10 µM [3]: 0% | inhibition at 10 µM [4]: 0% | inhibition at 10 µM [5]: 96% | inhibition at 10 µM [6]: 0%

c1ccc(COc2cccc(-c3ccnc4[nH]ccc34)c2)cc1 [Compound 9]
inhibition at 10 µM [1]: 0% | inhibition at 10 µM [2]: 0% | inhibition at 10 µM [3]: 0% | inhibition at 10 µM [4]: 0% | inhibition at 10 µM [5]: 0% | inhibition at 10 µM [6]: 0%

Clc1ccc(Nc2ncc(-c3ccccc3)s2)cc1 [Compound 10]
inhibition at 10 µM [1]: 0% | inhibition at 10 µM [2]: 0% | inhibition at 10 µM [3]: 0% | inhibition at 10 µM [4]: 0% | inhibition at 10 µM [5]: 0% | inhibition at 10 µM [6]: 0%

Nc1ncc2c(-c3ccncc3)c[nH]c2n1 [Compound 11]
inhibition at 10 µM [1]: 0% | inhibition at 10 µM [2]: 84.9% | inhibition at 10 µM [3]: 94.6% | inhibition at 10 µM [4]: 0% | inhibition at 10 µM [5]: 0% | inhibition at 10 µM [6]: 0%
